# Experimental data: patent US9012481B2, “Benzoarylureido compounds, and composition for prevention or treatment of neurodegenerative brain disease containing the same” (Korea Institute of Science and Technology, priority 2009, dated 2015)
# Like-named read-outs stand apart in the source and are kept apart here.
# What was measured:
# Type in all cases: cell-based
# interleukin-1beta = test: ELISA of interleukin-1beta in LPS-treated BV-2 cells; settings: LPS 1 μg/ml for 2 hours, then 50 nM KHG25967 for 6 hours; compared to LPS only as 100%
# Protocol: Lipopolysaccharide (LPS)-treated cells (6-well of 5×10^5 cells/3 Ml, Fluka, Sigma-Aldrich, St. Louis, Mo., USA) were collected, and washed with phosphate-buffered saline (PBS). The cells were centrifuged, and then dissolved in pro-prep lysis buffer at 4° C. Interleukin-1 beta and tumor necrosis factor-alpha in the cell lysis solution wherein the cells were dissolved were measured by enzyme-linked immunosorbent analysis plate (R&D systems inc, Minneapolis, Minn., USA). The absorbance at 450 nm was measured using microplate reader. In addition, cytokine was measured using a cytokine measuring system (R&D systems inc, Minneapolis, Minn., USA).
# BV-2 cells were pre-treated with 1 μg/ml of LPS (Fluka, Sigma-Aldrich, St. Louis, Mo., USA) for 2 hours, and then, further treated with 50 nM KHG25967 for 6 hours. The changed amounts of cytokines of tumor necrosis factor-alpha and interleukin-1beta were measured from lysate solution where the cells were dissolved in cell lysate solution (Intron Biotechnology, Seoul, Korea).
# BV-2 cells = test: Cell viability (MTT analysis) of beta-amyloid treated BV-2 cells; settings: for viability at 0.05 µM: Mus musculus
# Protocol: Beta-amyloid (Aβ25-35, Sigma Chemical Co., St. Louis, Mo., USA) was diluted with aseptic desalted water and preservative solution (1 mM, GIBCO), and kept in aliquots at −70° C. To the treatment of beta-amyloid, beta-amyloid preservative solution was diluted to desired concentrations in a treatment medium (DMEM, GIBCO). The reagents were newly provided as a preservative solution (10 mM) under DMSO (dimethylsulfoxide), and diluted in treatment medium to desired concentrations.
# BV-2 microglia cells (allotted from Pharmacology Division of Ajou University) were cultivated in DMEM (Dulbecco's Modified Eagle's Medium) supplemented with 5% fetal bovine serum (Invitrogen, Carlsbad, Calif., USA), sou/Ml penicillin (Invitrogen, Carlsbad, Calif., USA), and 50 μg/Ml streptomycin (Invitrogen, Carlsbad, Calif., USA) under the atmosphere condition with 5% CO2 and 95% air at 37° C. The medium was replaced once a day, the cells were plate-cultured in a density according to the scale of each experiment.
# BV-2 cells were plate-cultured in 96-well plate at the density of 5×10^4, the cell viability was measured according to a conventional MTT analysis method and lactate dehydrogenase (LDH) analysis method. The MTT analysis depends on the metabolism ability of mitochondria of living cell, and reflexes intracellular redox states. The cultured cells were treated with MTT a solution (final concentration: 1 mg/Ml) for 4 hours. Deep blue formazan crystal generated in the original cells was dissolved in a lysis buffer, and then, the absorbance was detected at 595 nm with microplate reader. The LDH activity released from the culture medium was detected, which was evaluated as a cell death index. The culture medium was added to a reagent (test, Sigma Chemical Co, St. Louis, Mo., USA) containing sodium lactate, NADH and sodium pyruvate, and then, the absorbance reduction by NADH at 340 nm was measured. The result was calculated assuming that the LDH activity in homogenate solution of the non-treated control is 100%.
# […] For microscope analysis, BV-2 cells were used in 6-well plate at the density of 5×10^5 cells/well, for MTT analysis, BV-2 cells were used in 96-well plate at the density of 5×10^4 cells/well.
# The obtained prevention effects of KHG25967 compound on toxicity induced by beta-amyloid in BV-2 cells were FIGS. 1A and 1b.
# For MTT analysis, BV-2 cells were used on 96-well plate in the density of 5×10^4 cells/well. The quantitative analysis results (unit: %) for the cell viability obtained by MTT analysis were shown in Table 2, wherein the values are represented by the average of three experiments per each concentration.
# phospho-ERK2 = test: Immunoblotting of phospho-ERK2 in beta-amyloid stimulated BV-2 cell culture; settings: beta-amyloid together with KHG25967 (50 nM) compared to beta-amyloid only
# Protocol: The beta-amyloid treated cells (6-well of 5×10^5 cells/3 Ml, allotted from Pharmacology Division of Ajou University) were collected, and washed with phosphate-buffered saline (PBS). After centrifugation, the cells were dissolved in 0.1 ml of RIPA buffer (containing 150 mM NaCl, 1% NP-40, 0.5% sodium deoxycholate, 0.1% SDS, 50 mM Tris-HCl, pH 7.4, 50 mM glyycerophosphate, 20 mM NaF, 20 mM EGTA, 1 mM DTT, 1 mM Na3VO4, and protease inhibitor) at 4° C. for 15 minutes by strong shaking. The cells were cultivated in ice for 10 minutes, the lysate was centrifuged at 14,000 rpm for 5 minutes. 20 μg of a protein obtained from the cell lysate was heated, and then, electrophoresed on 12% polyacrylamide gel under reduction condition. The cells were incubated in blocking buffer (20 mM Tris, pH 7.4-buffer saline containing 0.1% tween 20 containing 5% lipid-free dried milk) for 1 hour, to suppress non-specific binding. […]
# To examine the effect of compound KHG25967 on phosphorylation of ERK (extracellular signal-regulated kinase) and expression of caspase 3 by beta-amyloid, a possible protein expression of ERK1/2 (extracellular signal-regulated kinase 1 & 2) and caspase 3 in BV-2cell culture stimulated with beta-amyloid were measured. […]
structure (smiles),measurement,setting,value
"O=C(O)CNC(=O)Nc1nc2ccccc2s1 [KHG25967, 2-(3-benzo[d]thiazole-2-ylureido)acetic acid]",suppression of interleukin-1beta level (FIG. 3A),interleukin-1beta,70%
same,"protection against nervous cell degeneration by beta-amyloid, compound pre-treated","BV-2 cells; KHG25967 pre-treated prior to the addition of beta-amyloid, similar to treatment after beta-amyloid",shows a protective effect against nervous degeneration
same,viability at 0.05 µM,"BV-2 cells; BV-2, 50 nM KHG25967 for 24 hours after 50 μM beta-amyloid for 2 hours, beta-amyloid only control 35%, read-out: cell viability (FIG. 1B, MTT analysis)",83%
same,viability at 0.05 µM,"BV-2 cells; compound 50 nM for 24 hours after 50 μM beta-amyloid for 2 hours, BV-2 cells, average of three experiments, read-out: cell viability by MTT analysis",83%
same,reduction of expression level of phospho-ERK2 (FIG. 2B),phospho-ERK2,70%
